Where two headings read alike, the source gives them in different places.
Tests used:
[1] = target: rat mGlu2 receptor (Rattus norvegicus (Rat), UniProt P31421); assay: mGlu2 in vitro GIRK thallium flux assay; type: cell-based; conditions: NAM, EC80 glutamate, HEK-293 GIRK cells
Protocol: (§1) All cell culture reagents were purchased from Invitrogen Corp. (Carlsbad, Calif.) unless otherwise noted. Compound activity at the group II (mGlu2 and mGlu3) mGlus was assessed using thallium flux through GIRK channels. Briefly, cells were plated into 384-well, black-walled, clear-bottomed poly-D-lysine-coated plates at a density of 15,000 cells/20 μL/well in DMEM containing 10% dialyzed FBS, 20 mM HEPES, and 100 units/mL penicillin/streptomycin (assay media). Plated cells were incubated overnight at 37° C. in the presence of 5% CO2. […] Cells were incubated for 1 h at room temperature, and the dye exchanged to assay buffer using an ELX405, leaving 20 μL/well. Test compounds were diluted to 2 times their final desired concentration in assay buffer (0.3% DMSO final concentration). […] Cell plates and compound plates were loaded onto a kinetic imaging plate reader (FDSS 6000 or 7000; Hamamatsu Corporation, Bridgewater, N.J.). Appropriate baseline readings were taken (10 images at 1 Hz; excitation, 470±20 nm; emission, 540±30 nm) and test compounds were added in a 20 μL volume and incubated for either 2.5 min or 60 min as indicated before the addition of 10 μL of thallium buffer with or without agonist. After the addition of agonist, data were collected for approximately an additional 2.5 min. Data were analyzed using Excel (Microsoft Corp, Redmond, Wash.). The slope of the fluorescence increase beginning 5 s after thallium/agonist addition and ending 15 s after thallium/agonist addition was calculated, corrected to vehicle and maximal agonist control slope values, and plotted in using either XLfit (ID Business Solutions Ltd) or Prism software (GraphPad Software, San Diego, Calif.) to generate concentration-response curves. Potencies were calculated from fits using a four-point parameter logistic equation. For concentration-response curve experiments, compounds were serially diluted 1:3 into 10 point concentration response curves and were transferred to daughter plates using an Echo acoustic plate reformatter (Labcyte, Sunnyvale, Calif.). Test compounds were applied and followed by EC80 concentrations of glutamate.

[2] = target: rat mGlu3 receptor (Rattus norvegicus (Rat), UniProt P31422); assay: mGlu3 in vitro GIRK thallium flux assay; type: cell-based; conditions: NAM; 2.5 min compound incubation; EC80 glutamate; HEK-293 GIRK cells
Protocol: as §1

[3] = mGlu2 EC50 (μM) (60 min), 60 min compound incubation
[4] = 2.5 min compound incubation, read-out: mGlu2 EC50 (μM) (2.5 min)
[5] = read-out: mGlu2 EC50 (μM) (60 min), 60 min compound incubation

Chain of rat mGlu2 receptor (P31421 19-872): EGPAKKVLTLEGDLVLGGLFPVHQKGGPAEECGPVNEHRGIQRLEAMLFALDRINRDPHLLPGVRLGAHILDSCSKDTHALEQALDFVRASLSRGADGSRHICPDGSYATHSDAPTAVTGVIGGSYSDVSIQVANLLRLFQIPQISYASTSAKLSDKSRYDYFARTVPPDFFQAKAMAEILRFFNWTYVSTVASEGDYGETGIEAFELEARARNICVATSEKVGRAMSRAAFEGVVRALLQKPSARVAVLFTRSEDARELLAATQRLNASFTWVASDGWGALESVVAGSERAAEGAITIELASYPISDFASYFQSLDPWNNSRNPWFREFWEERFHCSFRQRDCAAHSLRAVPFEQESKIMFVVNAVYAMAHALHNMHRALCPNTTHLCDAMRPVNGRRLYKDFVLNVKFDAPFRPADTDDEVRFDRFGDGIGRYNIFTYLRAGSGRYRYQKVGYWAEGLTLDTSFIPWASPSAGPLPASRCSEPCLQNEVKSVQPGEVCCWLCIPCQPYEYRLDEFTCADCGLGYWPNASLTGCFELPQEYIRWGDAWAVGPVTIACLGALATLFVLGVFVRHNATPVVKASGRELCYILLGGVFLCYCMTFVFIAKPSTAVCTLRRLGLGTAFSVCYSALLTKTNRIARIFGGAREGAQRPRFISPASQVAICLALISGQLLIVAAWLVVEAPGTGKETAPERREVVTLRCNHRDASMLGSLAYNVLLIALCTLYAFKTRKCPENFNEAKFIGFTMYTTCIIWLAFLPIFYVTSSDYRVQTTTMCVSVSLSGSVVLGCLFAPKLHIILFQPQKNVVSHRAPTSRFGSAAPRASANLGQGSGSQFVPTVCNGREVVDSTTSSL
Chain of rat mGlu3 receptor (P31422 23-879): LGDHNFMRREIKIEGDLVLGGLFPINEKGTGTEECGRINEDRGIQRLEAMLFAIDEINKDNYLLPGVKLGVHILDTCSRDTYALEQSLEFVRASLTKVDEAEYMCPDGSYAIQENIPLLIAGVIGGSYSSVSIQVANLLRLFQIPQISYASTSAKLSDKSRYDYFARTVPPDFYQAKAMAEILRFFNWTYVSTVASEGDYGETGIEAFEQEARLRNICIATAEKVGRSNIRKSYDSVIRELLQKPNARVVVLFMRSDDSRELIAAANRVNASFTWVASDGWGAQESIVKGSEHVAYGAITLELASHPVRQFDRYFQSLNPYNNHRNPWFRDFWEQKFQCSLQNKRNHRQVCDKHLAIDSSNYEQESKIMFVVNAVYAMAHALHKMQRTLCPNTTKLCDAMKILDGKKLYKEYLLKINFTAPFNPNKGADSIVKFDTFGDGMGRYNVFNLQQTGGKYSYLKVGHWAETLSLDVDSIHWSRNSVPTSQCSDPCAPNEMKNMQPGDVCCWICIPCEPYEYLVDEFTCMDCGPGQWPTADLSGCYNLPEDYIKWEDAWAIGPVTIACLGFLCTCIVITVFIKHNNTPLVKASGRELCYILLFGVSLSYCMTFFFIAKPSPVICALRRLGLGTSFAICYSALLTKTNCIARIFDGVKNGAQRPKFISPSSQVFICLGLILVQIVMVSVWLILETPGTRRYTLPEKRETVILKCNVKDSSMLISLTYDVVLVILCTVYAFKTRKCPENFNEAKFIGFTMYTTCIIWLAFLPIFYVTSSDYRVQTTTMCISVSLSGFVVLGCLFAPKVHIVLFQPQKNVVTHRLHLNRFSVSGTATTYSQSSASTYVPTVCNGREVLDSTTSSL

Row | EC50 [1, 3] | Structure (SMILES) | EC50 [2] | EC50 [1, 4] | EC50 [1, 5]
1 | > 10 µM | COC(=O)c1cccc(C2CC(=O)Nc3cc(C(F)(F)F)c(C)cc3N2)c1 (racemic) [Example 151, (±)-Methyl 3-(8-methyl-4-oxo-7-(trifluoromethyl)-2,3,4,5-tetrahydro-1H-benzo[b][1,4]diazepin-2-yl)benzoate] | – | – | –
2 | 4.43 µM | Cc1cc2c(cc1C(F)(F)F)NC(=O)CC(c1cccc(CCCO)c1)N2 (racemic) [Example 154, 4-(3-(3-Hydroxypropyl)phenyl)-7-methyl-8-(trifluoromethyl)-4,5-dihydro-1H-benzo[b][1,4]diazepin-2(3H)-one] | > 10 µM | > 10 µM | –
3 | 3.7 µM | Cc1cc(-c2cccc(C3CC(=O)Nc4cc(C(F)(F)F)c(C)cc4N3)c2)cc(C)n1 (racemic) [Example 156, 4-(3-(2,6-Dimethylpyridin-4-yl)phenyl)-7-methyl-8-(trifluoromethyl)-4,5-dihydro-1H-benzo[b][1,4]diazepin-2(3H)-one] | > 10 µM | > 10 µM | –
4 | > 30 µM | N#Cc1cccc(C2CC(=O)Nc3cc(C(=O)O)ccc3N2)c1 (racemic) [Example 161, 2-(3-Cyanophenyl)-4-oxo-2,3,4,5-tetrahydro-1H-benzo[b][1,4]diazepine-7-carboxylic Acid] | – | – | –
5 | > 10 µM | Cc1cc2c(cc1C(F)(F)F)NC(=O)CC(c1cccc(-n3ccc4ccccc43)c1)N2 (racemic) [Example 167B, 4-(3-(1H-Indol-1-yl)phenyl)-7-methyl-8-(trifluoromethyl)-4,5-dihydro-1H-benzo[b][1,4]diazepin-2(3H)-one] | – | – | –
6 | > 10 µM | Cc1cc2c(cc1C(F)(F)F)NC(=O)CC(c1cccc(CCC(=O)O)c1)N2 (single isomer, unassigned) [Example 155B, 3-(3-(8-methyl-4-oxo-7-(trifluoromethyl)-2,3,4,5-tetrahydro-1H-benzo[b][1,4]diazepin-2-yl)phenyl)propanoic acid] | – | – | –
7 | – | Cc1cc2c(cc1C(F)(F)F)NC(=O)CC(c1cccc(Sc3ncccn3)c1)N2 (single isomer, unassigned) [Example 166B, 7-Methyl-4-(3-(pyrimidin-2-ylthio)phenyl)-8-(trifluoromethyl)-4,5-dihydro-1H-benzo[b][1,4]diazepin-2(3H)-one] | 4.53 µM | 8.47 µM | 1.23 µM
8 | > 10 µM | Cc1cc2c(cc1C(F)(F)F)NC(=O)CC(c1cccc(C(N)=O)c1)N2 (single isomer, unassigned) [Example 168A, 3-(8-Methyl-4-oxo-7-(trifluoromethyl)-2,3,4,5-tetrahydro-1H-benzo[b][1,4]diazepin-2-yl)benzamide] | – | – | –
9 | – | Cc1cc2c(cc1C(F)(F)F)NC(=O)CC(c1cccc(Oc3cc(F)cc(F)c3)c1)N2 (single isomer, unassigned) [Example 174B, 4-(3-(3,5-Difluorophenoxy)phenyl)-7-methyl-8-(trifluoromethyl)-4,5-dihydro-1H-benzo[b][1,4]diazepin-2(3H)-one] | – | – | > 10 µM
10 | 4.47 µM | C#Cc1cccc(C2CC(=O)Nc3cc(C(F)(F)F)c(C)cc3N2)c1 (single isomer, unassigned) [Example 175B, 4-(3-Ethynylphenyl)-7-methyl-8-(trifluoromethyl)-4,5-dihydro-1H-benzo[b][1,4]diazepin-2(3H)-one] | – | – | –
11 | > 10 µM | NS(=O)(=O)c1cccc(-c2cccc(-c3csc(-c4ccccc4)n3)c2)c1 [Example 2, 3′-(2-Phenylthiazol-4-yl)biphenyl-3-sulfonamide] | > 30 µM | > 30 µM | –
12 | – | O=C(O)c1cc(-c2cccc(-c3cnc(-c4ccccc4)s3)c2)ccc1F [Example 3, 4-Fluoro-3′-(2-phenylthiazol-5-yl)biphenyl-3-carboxylic Acid] | > 10 µM | > 30 µM | > 10 µM
13 | – | Fc1ccc(-c2cccc(-c3nc(-c4ccc(C(F)(F)F)nc4)cc(C(F)(F)F)n3)c2)cc1-c1nn[nH]n1 [Example 124, 2-(4′-Fluoro-3′-(2H-tetrazol-5-yl)-[1,1′-biphenyl]-3-yl)-4-(trifluoromethyl)-6-(6-(trifluoromethyl)pyridin-3-yl)pyrimidine] | – | – | 1.29 µM
14 | – | O=c1[nH]c(-c2cc(-c3cccc(-c4nc(-c5ccoc5)cc(C(F)(F)F)n4)c3)ccc2F)no1 [Example 133, 3-(4-Fluoro-3′-(4-(furan-3-yl)-6-(trifluoromethyl)pyrimidin-2-yl)-[1,1′-biphenyl]-3-yl)-1,2,4-oxadiazol-5(4H)-one] | – | – | 0.73 µM
15 | – | Fc1ccc(-c2cccc(-c3nc(-c4ccoc4)cc(C(F)(F)F)n3)c2)cc1-c1noc(=S)[nH]1 [Example 134, 3-(4-Fluoro-3′-(4-(furan-3-yl)-6-(trifluoromethyl)pyrimidin-2-yl)-[1,1′-biphenyl]-3-yl)-1,2,4-oxadiazole-5(4H)-thione] | – | – | > 10 µM
16 | – | O=c1[nH]c(-c2cc(-c3cccc(-c4nc(-c5ccoc5)cc(C(F)(F)F)n4)c3)ccc2F)ns1 [Example 135, 3-(4-Fluoro-3′-(4-(furan-3-yl)-6-(trifluoromethyl)pyrimidin-2-yl)-[1,1′-biphenyl]-3-yl)-1,2,4-thiadiazol-5(4H)-one] | – | – | > 10 µM
17 | – | Cc1cccc(C#Cc2cccc(C3=Nc4cc(C)c(C(F)(F)F)cc4NC(=O)C3)c2)n1 [Example 138, 7-Methyl-4-(3-((6-methylpyridin-2-yl)ethynyl)phenyl)-8-(trifluoromethyl)-1H-benzo[b][1,4]diazepin-2 (3H)-one] | – | – | > 10 µM
18 | – | Cc1cc2c(cc1C(F)(F)F)NC(=O)CC(c1cccc(Nc3ccccn3)c1)=N2 [Example 141, 7-Methyl-4-(3-(pyridin-2-ylamino)phenyl)-8-(trifluoromethyl)-1H-benzo[b][1,4]diazepin-2(3H)-one] | – | – | > 10 µM
19 | – | CCOC(=O)/C=C/c1cccc(C2=Nc3cc(C)c(C(F)(F)F)cc3NC(=O)C2)c1 [Example 152, Ethyl 3-(3-((E)-7-methyl-2-oxo-8-(trifluoromethyl)-2,3-dihydro-1H-benzo[b][1,4]diazepin-4-yl)phenyl)acrylate] | – | – | 3.26 µM
20 | – | O=C1CC(c2cccc(Br)c2)=Nc2ccc(NC(=O)OCc3ccccc3)cc2N1 [Example 157, Benzyl (4-(3-bromophenyl)-2-oxo-2,3-dihydro-1H-benzo[b][1,4]diazepin-8-yl)carbamate] | – | – | > 10 µM

Row | Structure (SMILES) | EC50 [1, 3] | EC50 [2] | EC50 [1, 4] | EC50 [1, 5]
21 | O=C1CC(c2cccc(Br)c2)Nc2ccc(NC(=O)OCc3ccccc3)cc2N1 (racemic) [Example 158, Benzyl (2-(3-bromophenyl)-4-oxo-2,3,4,5-tetrahydro-1H-benzo[b][1,4]diazepin-7-yl)carbamate] | > 10 µM | – | – | –
22 | N#Cc1cc(C2CC(=O)Nc3cc(C(=O)O)ccc3N2)ccn1 (racemic) [Example 160, 2-(2-Cyanopyridin-4-yl)-4-oxo-2,3,4,5-tetrahydro-1H-benzo[b][1,4]diazepine-7-carboxylic Acid] | > 30 µM | – | – | –
23 | Cc1cc(-c2cccc(C3CC(=O)Nc4cc(NC(=O)OCc5ccccc5)ccc4N3)c2)cc(C)n1 (racemic) [Example 162, Benzyl (2-(3-(2,6-dimethylpyridin-4-yl)phenyl)-4-oxo-2,3,4,5-tetrahydro-1H-benzo[b][1,4]diazepin-7-yl)carbamate] | 5.36 µM | > 10 µM | > 10 µM | –
24 | Cc1cc2c(cc1C(F)(F)F)NC(=O)CC(c1cccc(Oc3ncccn3)c1)N2 (racemic) [Example 164, 7-Methyl-4-(3-(pyrimidin-2-yloxy)phenyl)-8-(trifluoromethyl)-4,5-dihydro-1H-benzo[b][1,4]diazepin-2(3H)-one] | 1.56 µM | 5.57 µM | > 10 µM | –
25 | Cc1cc2c(cc1C(F)(F)F)NC(=O)CC(c1cccc(Oc3ccccn3)c1)N2 (racemic) [Example 165, 7-Methyl-4-(3-(pyridin-2-yloxy)phenyl)-8-(trifluoromethyl)-4,5-dihydro-1H-benzo[b][1,4]diazepin-2(3H)-one] | 1.47 µM | 3.47 µM | 4.37 µM | –
26 | C#CCNC(=O)c1cccc(C2CC(=O)Nc3cc(C(F)(F)F)c(C)cc3N2)c1 (racemic) [Example 170B, 3-(8-Methyl-4-oxo-7-(trifluoromethyl)-2,3,4,5-tetrahydro-1H-benzo[b][1,4]diazepin-2-yl)-N-(prop-2-yn-1-yl)benzamide] | 3.68 µM | – | – | –
27 | Cc1cc2c(cc1C(F)(F)F)NC(=O)CC(c1cccc(OCc3ccccc3)c1)N2 (racemic) [Example 178, 4-(3-(Benzyloxy)phenyl)-7-methyl-8-(trifluoromethyl)-4,5-dihydro-1H-benzo[b][1,4]diazepin-2(3H)-one] | > 10 µM | – | – | –

From patent US9969726B2, “Metabotropic glutamate receptor negative allosteric modulators (NAMS) and uses thereof” (Sanford-Burnham Medical Research Institute, priority 2014, dated 2018)
